Values after ≈ are worked out from the molar mass of the structure shown.

What all share (format): physicochemical
Data set [1] is described as follows: Encapsulation efficiency and load of furosemide in nanoparticles (Example 8). The source says: (§1) The encapsulation efficiency (EE) refers to the percentage of drug which is trapped in the chitosan-cyclodextrin system with respect to the quantity of drug added in the process of preparation of the nanoparticles. The drug load is indirectly determined from a calculation of the non-encapsulated drug which remains dissolved in the nanoparticles' suspension medium. The difference between this value and the theoretical drug content is taken to be the quantity of drug loaded in the nanoparticles. The drug load percentage which appears in the table is the percentage with respect to the quantity of encapsulated drug in 100 mg of nanoparticle.
The drug that was not dissolved by the cyclodextrin-polymer mixture was discarded during the filtration process (through 0.45 .m) which was conducted prior to crosslinking the polymer (see example 3). […]. […]

Data set [2] is described as follows: Encapsulation efficiency and load of triclosan in nanoparticles (Example 7). The protocol: (§2) Nanoparticles of chitosan-cyclodextrin were obtained according to the method described in example 2, but adding a sufficient quantity of the drug triclosan to the initial solutions in order to oversaturate the solution. The drug that was not dissolved by the cyclodextrin-polymer mixture was discarded during the filtration process (through 0.45 .m) which was conducted prior to crosslinking the polymer by means of ionotropic crosslinking (see example 2). […] The triclosan was measured by means of a spectrophotometric method (.=280 nm).
as §1

Data set [3] in a line: Encapsulation efficiency and load of triclosan, chitosanase degradation (Example 10). The settings on record: 80% water/20% ethanol. The protocol:
(§3) In a mixture of 80% water and 20% ethanol, solutions (3 ml) of chitosan (Protasan Cl110, 0.2%), HP.CD (0, 1.28 and 2.56 mM) and triclosan were prepared in a sufficient quantity to oversaturate the solution. These solutions were incubated for 24 h under magnetic stirring and, subsequently, filtered through a 0.45-.m filter and crosslinked by the addition of 1.2 ml of tripolyphosphate dissolved in a mixture of 80% water and 20% ethanol at a concentration of 1.25 mg/ml. The nanoparticles were isolated by centrifugation at 16000×g and resuspended in water. The size of the resulting particles and the polydispersion thereof were characterised by means of photon correlation spectroscopy (PCS). The quantity of encapsulated drug was determined by the degradation of an aliquot of the resuspended nanoparticles with the enzyme chitosanase (Chitosanase-RD, Pias Co, Japan), and the assessment was performed by means of spectrophotometry (.=280 nm).

Data set [4] is described as follows: Solubility of triclosan in the initial chitosan-cyclodextrin solutions (Example 7). Particulars: aqueous with cosolvent or surfactant or cyclodextrin, thermodynamic from solid. The protocol:
as §2

The nature of data set [5]: Dissolved triclosan in 80% water / 20% ethanol phase (Example 10). The protocol: as §3
Where [6] appears, read: type HPCD •, 25 mM (first 25 mM line).
Where [7] appears, read: type HPCD •, 25 mM (second 25 mM line).

Take `NS(=O)(=O)c1cc(C(=O)O)c(NCc2ccco2)cc1Cl` [furosemide]: the “furosemide EE” value was 22.3 ± 1.4% in data set [1] (HPCD 0 mM); 17.1 ± 3.0% in data set [1] (type HPCD •, 3.14 mM); 12.1 ± 1.3% in data set [1] (type HPCD •, 6.29 mM); 7.2 ± 3.1% in data set [1] (setting [6]); 8.8 ± 2.7% in data set [1] (setting [7]). Besides, the load of furosemide in data set [1] (HPCD 0 mM) is 0.23 ± 0.07%; in data set [1] (type HPCD •, 3.14 mM), 0.89 ± 0.04%; in data set [1] (type HPCD •, 6.29 mM), 1.43 ± 0.24%; in data set [1] (setting [6]), 2.39 ± 0.72%; in data set [1] (setting [7]), 1.92 ± 0.55%.
In the case of `Oc1cc(Cl)ccc1Oc1ccc(Cl)cc1Cl` [triclosan], the “triclosan EE” value in data set [2] (HPCD 0 mM) is listed as 12.5 ± 8%; in data set [2] (type HPCD •, 3.14 mM) it was 5.2 ± 7%; in data set [2] (type HPCD •, 6.29 mM), 4.8 ± 3%; in data set [2] (setting [6]) it was 5.5 ± 5%; in data set [2] (setting [7]), 4.6 ± 4%; in data set [3] (HP•CD 0 mM), 22.3 ± 1.4%. Further, the “triclosan EE” value in data set [3] (HP•CD 1.28 mM) is given as 37.7 ± 7.3%; in data set [3] (HP•CD 2.56 mM) it was 33.5 ± 2.7%. For the same compound, the triclosan load in data set [2] (HPCD 0 mM) was 0.8 ± 0.3%; in data set [2] (type HPCD •, 3.14 mM), 1.1 ± 0.2%; in data set [2] (type HPCD •, 6.29 mM) it was 2.2 ± 0.1%; in data set [2] (setting [6]), 3.1 ± 0.1%; in data set [2] (setting [7]) it was 2.0 ± 0.1%. Also, the load of triclosan in data set [3] (HP•CD 0 mM) is recorded as 2.2 ± 0.9%; in data set [3] (HP•CD 1.28 mM), 7.4 ± 1.3%; in data set [3] (HP•CD 2.56 mM), 8.7 ± 0.2%. The solubility in data set [4] (HPCD 0 mM) was 68 ± 17 µg/mL (≈ 235 µM); in data set [4] (type HPCD •, 3.14 mM), 211 ± 24 µg/mL (≈ 729 µM); in data set [4] (type HPCD •, 6.29 mM), 588 ± 18 µg/mL (≈ 2030 µM); in data set [4] (setting [6]), 1120 ± 13 µg/mL (≈ 3870 µM); in data set [4] (setting [7]), 870 ± 59 µg/mL (≈ 3000 µM). In addition, the dissolved triclosan in data set [5] (HP•CD 0 mM) was determined as 719 ± 79 mg/L; in data set [5] (HP•CD 1.28 mM), 2536 ± 283 mg/L; in data set [5] (HP•CD 2.56 mM), 3521 ± 213 mg/L.

By solubility is commonly meant the concentration that dissolves in the medium under given conditions.
